From paper PMC7226357, “Aspirin: A Suicide Inhibitor of Carbonic Anhydrase II” (Biomolecules, 2020) come the findings set out here.

In the assay the target is T1, Carbonic anhydrase II (Homo sapiens, UniProt P00918).
T1 construct: gene CA2
Briefly: colorimetric esterase assay at […] nm (substrate of the assay). Format: biochemical.

Turning to `CC(=O)Oc1ccc([N+](=O)[O-])cc1` [pNPA, 4-nitrophenyl acetate], the “colorimetric esterase assay at 348 nm (substrate of the assay)” value is recorded as “CAII cleaves the ester bond of 4-nitrophenyl acetate, generating 4-nitrophenol”.
